From patent US11607404B2, “Combinations of RAD51 and PARP inhibitors” (Cyteir Therapeutics, Inc., priority 2019, dated 2023)

What was measured:
[1] = test system: J000101173 model; experiment: Tumor growth inhibition, subcutaneous engrafted tumor model; format: in vivo, mice; conditions: HRD Positive, RAD51 Low, BRCA WT, PALB2 WT, 67A 40 mg/kg QD, olaparib 50 mg/kg QD, combo both
Protocol: (§1) Immunodeficient mice were subcutaneously engrafted in the rear flank with the tumor cells. The tumors were allowed to grow to a size of about 100 to about 200 mm^3 prior to being randomized and grouped into treatment arms. For models […] through […] the four treatment arms were vehicle, Compound 67A at 80 mg/kg QD, olaparib at 100 mg/kg QD, and Compound 67A+Olaparib at 80 mg/kg QD and 100 mg/kg QD, respectively. For models J000101173 through TM00091 the treatment arms were vehicle, Compound 67A at 40 mg/kg QD, olaparib at 50 mg/kg QD, and Compound 67A+Olaparib at 40 mg/kg QD and 50 mg/kg QD, respectively. The tumors were measured either once weekly or twice weekly.
(§2) Percent Tumor Growth Inhibition (% TGI) was calculated by taking the mean volume of each of the treatment arms, and comparing the treatment arms to the vehicle arms using the following equation

[2] = test system: HBCx16 model; experiment: as above; format: in vivo, mice; conditions: HRD Positive, RAD51 High, BRCA1 Meth, PALB2 WT, 67A 80 mg/kg QD, olaparib 100 mg/kg QD, combo both
Protocol: as §1, §2

[3] = test system: HBCx1 model; experiment: as above; format: in vivo, mice; conditions: HRD Positive, RAD51 High, BRCA WT, PALB2 WT, 67A 80 mg/kg QD, olaparib 100 mg/kg QD, combo both
Protocol: as §1, §2

[4] = test system: TM01079 model; experiment: as above; format: in vivo, mice; conditions: HRD Positive, RAD51 Low, BRCA1 Meth, PALB2 WT, 67A 40 mg/kg QD, olaparib 50 mg/kg QD, combo both
Protocol: as §1, §2

[5] = test system: HBCx17 model; experiment: as above; format: in vivo, mice; conditions: HRD Positive, RAD51 High, BRCA2 Mut, PALB2 WT, 67A 80 mg/kg QD, olaparib 100 mg/kg QD, combo both
Protocol: as §1, §2

[6] = test system: TM000113 model; experiment: as above; format: in vivo, mice; conditions: HRD Negative, RAD51 Low, BRCA WT, PALB2 WT, 67A 40 mg/kg QD, olaparib 50 mg/kg QD, combo both
Protocol: as §1, §2

[7] = test system: J000100675 model; experiment: as above; format: in vivo, mice; conditions: HRD Negative, RAD51 Low, BRCA WT, PALB2 WT, 67A 40 mg/kg QD, olaparib 50 mg/kg QD, combo both
Protocol: as §1, §2

[8] = test system: TM00091 model; experiment: as above; format: in vivo, mice; conditions: HRD Positive, RAD51 High, BRCA1 Mut, PALB2 WT, 67A 40 mg/kg QD, olaparib 50 mg/kg QD, combo both
Protocol: as §1, §2

[9] = Pharmacokinetic (PK) study; format: in vivo, Rat; conditions: po @ 80 mg/kg (30% PEG400, 10% Vitamin E TPGS in water)
Protocol: PK studies in mice were used to determine the fate of the compounds in a whole organism. Rats were treated with the compounds either orally of via IV at the indicated doses and followed for up to 24 hours. Plasma samples were taken at different time points and analyzed by LC-MS.

## CC(C)OC(=O)Nc1ccc(-c2cnc([C@H]3CC[C@H](NC(=O)OC(C)C)CC3)s2)c(S(=O)(=O)NC(C)(C)C)c1 [Compound 67A, trans-isopropylN-[3-(tert-butylsulfamoyl)-4-[2-[4-(isopropoxycarbonylamino)cyclohexyl]thiazol-5-yl]phenyl]carbamate]
[1]
  % TGI: 19.87%
[2]
  % TGI: −22.45%
[3]
  % TGI: 28.75%
[4]
  % TGI: 26.73%
[5]
  % TGI: −51.13%
[6]
  % TGI: 7.24%
[7]
  % TGI: 36.69%
[8]
  % TGI: 27%
[9]; Rat Female
  F (%) @ 5 mg/kg: 86.5%
[9]; Rat Male
  F (%) @ 5 mg/kg: 46.9%
